# Reference: EP3638219B1, “COMPOSITION COMPRISING TERPINENE-4-OL FOR THE TREATMENT OF DEMODICOSIS” (priority 2017, dated 2018)
# What was measured:
# demodex = conditions: components of TTO; WO06119174 A1 and WO09032773 A2; cited from earlier work
# [1] = Physical stability of terpinen-4-ol in aqueous media (phase separation, clarity); assay type: physicochemical
# Protocol: The compositions according to the invention are physically stable, i.e. clear, transparent and without precipitates, and substantially retain the initial content of the initial ingredient.
# For example, on a lab scale, terpinen-4-ol and a mixture of PPG-26 buteth-26 (b2), PEG-40 hydrogenated castor oil (b3) and trideceth-9 (b4) were mixed in water and stirred for about 30 minutes. Cocamidopropyl betaine was then added and a clear solution was obtained, which was verified as stable.
Compound,activity against demodex in vitro (demodex),"behaviour in aqueous media ([1]; concentrations below 2% in weight/weight of the composition, in the presence of commonly used emulsifiers and surfactants)",behaviour in aqueous media ([1]; in the presence of Tween 20 in a weight ratio to terpinen-4-ol up to 5:1)
"C=C(C)C1CC=C(C)C(=O)C1 (stereo not shown) [carvone, reference compound]",active,–,–
CC1=CCC(O)(C(C)C)CC1 (stereo not shown) [terpinen-4-ol],active,tends to separate from aqueous media,two-phase system
